For test [1], the system named is human multiple myeloma cell line, OPM-2. Nature of the test: Cell viability assay (OPM-2 10 FBS), CellTiter-Glo. It is filed as cell-based. In short, it runs like this: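 Steps: plate cells at 3000/well in 10% FBS growth medium, add serially diluted compound, incubate 16 h at 37 °C with 5% CO2, add detection reagent and read luminescence after 25 min. A 4-parameter logistic model gives IC50.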
In general terms: Cellular ATP, detected with luciferase, serves as a proxy for viable cell number.

Test [2] deals with recombinant human Mcl-1 (residues 171-327) / Bim interaction (Homo sapiens (Human), UniProt Q07820). As to the kind of experiment: biochemical. As to conditions: read-out: Mcl-1 HTRF IC50. It is filed as binding.
recombinant human Mcl-1 (residues 171-327) / Bim interaction, sequence (Q07820 171-327): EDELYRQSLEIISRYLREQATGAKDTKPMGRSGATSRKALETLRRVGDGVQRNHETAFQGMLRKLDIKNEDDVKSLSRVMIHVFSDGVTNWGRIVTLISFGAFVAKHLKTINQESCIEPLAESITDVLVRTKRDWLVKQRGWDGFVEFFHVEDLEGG
[3] abbreviates: read-out: OPM-2 10% FBS IC50 IP, OPM-2 cells, 10% FBS, 16 h, CellTiter-Glo.
The mark [4] stands for this setting: TR-FRET, Mcl-1(171-327) / biotin-Bim (51-76).
[5] abbreviates: Homo sapiens, OPM-2, 16 h, read-out: OPM-2 10% FBS IC50 IP, OPM-2 cells, 10% FBS, 16 h, CellTiter-Glo.
[6] abbreviates: Homo sapiens, OPM-2, 16 h, read-out: OPM-2 10% FBS IC50 IP, OPM-2 cells, 10% FBS, 16 h incubation.
The mark [7] stands for this setting: 0.1 nM Mcl-1(171-327), 0.05 nM biotin-Bim (51-76).

The term IC50 denotes the concentration at which inhibition is half-maximal.

Where two headings read alike, the source gives them in different places.

Take `CC[C@@H]1CC/C=C/[C@](O)(C(F)(F)F)[C@@H]2CC[C@H]2CN2C[C@@]3(CCCc4cc(Cl)ccc43)COc3ccc(cc32)C(=O)NS1(=O)=O` [Example 100047, (1S,3′R,6′R,7′R,8′E,12′R)-6-chloro-12′-ethyl-7′-hydroxy-7′-(trifluoromethyl)-3,4-dihydro-2H,15′H-spiro[naphthalene-1,22′-[20]oxa[13]thia[1,14]diazatetracyclo [14.7.2.0~3,6~.0~19,24~]pentacosa[8,16,18,24]tetraen]-15′-one 13′,13′-dioxide]: the IC50 is 2540 nM in test [1] (setting [3]) and 5.15 nM in test [2] (setting [4]).

Regarding `COCCN(C)C(=O)C[C@]1(O)/C=C/C[C@H](C)[C@@H](C)S(=O)(=O)NC(=O)c2ccc3c(c2)N(C[C@@H]2CC[C@H]21)C[C@@]1(CCCc2cc(Cl)ccc21)CO3` [Example 100277, 2-((1S,3′R,6′R,7′S,8′E,11′S,12′R)-6-chloro-7′-hydroxy-11′,12′-dimethyl-13′,13′-dioxido-15′-oxo-3,4-dihydro-2H-spiro[naphthalene-1,22′-[20]oxa[13]thia[1,14]diazatetracyclo [14.7.2.0~3,6~.0~19,24~]pentacosa[8,16,18,24]tetraen]-7′-yl)-N-(2-methoxyethyl)-N-methylacetamide], the IC50 in test [1] (setting [5]) worked out at 448 nM; in test [2] (setting [4]), 0.266 nM.

Take `C[C@@H]1[C@@H](C)C/C=C/[C@@](O)(CC2=NC(C)(C)CO2)[C@@H]2CC[C@H]2CN2C[C@@]3(CCCc4cc(Cl)ccc43)COc3ccc(cc32)C(=O)NS1(=O)=O` [Example 100346, (1S,3′R,6′R,7′S,8′E,11′S,12′R)-6-chloro-7′-((4,4-dimethyl-4,5-dihydro-1,3-oxazol-2-yl)methyl)-7′-hydroxy-11′,12′-dimethyl-3,4-dihydro-2H,15′H-spiro[naphthalene-1,22′-[20]oxa[13]thia[1,14]diazatetracyclo [14.7.2.0~3,6~.0~19,24~]pentacosa[8,16,18,24]tetraen]-15′-one 13′,13′-dioxide]: the IC50 in test [1] (setting [5]) came out at 248 nM; in test [2] (setting [4]) it was 0.735 nM.

For the compound `C[C@@H]1[C@@H](C)CCC[C@@]2(OCCO[C@H]2C=O)[C@@H]2CC[C@H]2CN2C[C@@]3(CCCc4cc(Cl)ccc43)COc3ccc(cc32)C(=O)NS1(=O)=O` (single isomer, unassigned) [Example 100495], the 50% inhibitory concentration (IC50) in test [1] (setting [5]) is 539 nM; in test [2] (setting [4]), 0.462 nM.

As for `C[C@@H]1[C@@H](C)C/C=C/[C@@](C)(OCc2cc(F)cc(F)c2)[C@@H]2CC[C@H]2CN2C[C@@]3(CCCc4cc(Cl)ccc43)COc3ccc(cc32)C(=O)NS1(=O)=O` (single isomer, unassigned) [Example 100474], the IC50 in test [1] (setting [5]) is 387 nM; in test [2] (setting [4]), 0.405 nM.

In the case of `Cc1ccnc(C[C@@]2(O)/C=C/C[C@H](C)[C@@H](C)S(=O)(=O)NC(=O)c3ccc4c(c3)N(C[C@@H]3CC[C@H]32)C[C@@]2(CCCc3cc(Cl)ccc32)CO4)c1` [Example 100532, (1S,3′R,6′R,7′R,8′E,11′S,12′R)-6-chloro-7′-hydroxy-11′,12′-dimethyl-7′-((4-methyl-2-pyridinyl)methyl)-3,4-dihydro-2H,15′H-spiro[naphthalene-1,22′-[20]oxa[13]thia[1,14]diazatetracyclo [14.7.2.0~3,6~.0~19,24~]pentacosa[8,16,18,24]tetraen]-15′-one 13′,13′-dioxide], the 50% inhibitory concentration (IC50) came to 8640 nM in test [1] (setting [5]) and 0.053 nM in test [2] (setting [4]).

`CC[C@@H]1CCCC[C@@](O)(CO)[C@@H]2CC[C@H]2CN2C[C@@]3(CCCc4cc(Cl)ccc43)COc3ccc(cc32)C(=O)NS1(=O)=O` [Example 100035, (1S,3′R,6′R,7′S,12′R)-6-chloro-12′-ethyl-7′-hydroxy-7′-(hydroxymethyl)-3,4-dihydro-2H,15′H-spiro[naphthalene-1,22′-[20]oxa[13]thia[1,14]diazatetracyclo [14.7.2.0~3,6~.0~19,24~]pentacosa[16,18,24]trien]-15′-one 13′,13′-dioxide]: the IC50 in test [1] (setting [5]) was 1470 nM; in test [2] (setting [4]), 0.601 nM.

In the case of `C[C@@H]1[C@@H](C)C/C=C/[C@@](O)(c2cncc(-c3ccccc3)c2)[C@@H]2CC[C@H]2CN2C[C@@]3(CCCc4cc(Cl)ccc43)COc3ccc(cc32)C(=O)NS1(=O)=O` (single isomer, unassigned) [Example 100534], the concentration for half-maximal inhibition (IC50) in test [1] (setting [5]) stood at 542 nM; in test [2] (setting [4]) it was 0.799 nM.

Consider `CO[C@@]1(CC2=NCCO2)/C=C/C[C@H](C)[C@@H](C)S(=O)(=O)NC(=O)c2ccc3c(c2)N(C[C@@H]2CC[C@H]21)C[C@@]1(CCCc2cc(Cl)ccc21)CO3` [Example 100500, (1S,3′R,6′R,7′S,8′E,11′S,12′R)-6-chloro-7′-(4,5-dihydro-1,3-oxazol-2-ylmethyl)-7′-methoxy-11′,12′-dimethyl-3,4-dihydro-2H,15′H-spiro[naphthalene-1,22′-[20]oxa[13]thia[1,14]diazatetracyclo [14.7.2.0~3,6~.0~19,24~]pentacosa[8,16,18,24]tetraen]-15′-one 13′,13′-dioxide], for which the values for the half-maximal inhibitory concentration (IC50) in test [1] (setting [5]) and in test [2] (setting [4]) were 71 nM and 0.049 nM, respectively.

For the compound `C[C@@H]1[C@@H](C)CCC[C@](O)([C@@H](C)C(=O)N(C)C)[C@@H]2CC[C@H]2CN2C[C@@]3(CCCc4cc(Cl)ccc43)COc3ccc(cc32)C(=O)NS1(=O)=O` (single isomer, unassigned) [Example 100119], the IC50 in test [1] (setting [3]) came out at 1570 nM; in test [2] (setting [4]) it was 1.72 nM.

For the compound `CCOP(=O)(OCC)C(F)(F)[C@]1(O)/C=C/C[C@H](C)[C@@H](C)S(=O)(=O)NC(=O)c2ccc3c(c2)N(C[C@@H]2CC[C@H]21)C[C@@]1(CCCc2cc(Cl)ccc21)CO3` [Example 100068, diethyl (((1S,3′R,6′R,7′S,8′E,11′S,12′R)-6-chloro-7′-hydroxy-11′,12′-dimethyl-13′,13′-dioxido-15′-oxo-3,4-dihydro-2H-spiro[naphthalene-1,22′-[20]oxa[13]thia[1,14]diazatetracyclo [14.7.2.0~3,6~.0~19,24~]pentacosa[8,16,18,24]tetraen]-7′-yl)(difluoro)methyl)phosphonate], the IC50 came out at 765 nM in test [1] (setting [3]) and 4.41 nM in test [2] (setting [4]).

Regarding `COC1CCN(C[C@]2(OC)/C=C/C[C@H](C)[C@@H](C)S(=O)(=O)NC(=O)c3ccc4c(c3)N(C[C@@H]3CC[C@H]32)C[C@@]2(CCCc3cc(Cl)ccc32)CO4)CC1` [Example 117, (1S,3′R,6′R,7′S,8′E,11′S,12′R)-6-chloro-7′-methoxy-7′-((4-methoxy-1-piperidinyl)methyl)-11′,12′-dimethyl-3,4-dihydro-2H,15′H-spiro[naphthalene-1,22′-[20]oxa[13]thia[1,14]diazatetracyclo [14.7.2.0~3,6~.0~19,24~]pentacosa[8,16,18,24]tetraen]-15′-one 13′,13′-dioxide], the IC50 in test [1] (setting [6]) came out at 358 nM; in test [2] (setting [7]), 0.352 nM.

Consider `C[C@@H]1[C@@H](C)CCC[C@@](O)(C#CCCN2CCOCC2)[C@@H]2CC[C@H]2CN2C[C@@]3(CCCc4cc(Cl)ccc43)COc3ccc(cc32)C(=O)NS1(=O)=O` [Example 100372, (1S,3′R,6′R,7′S,11S,12R)-6-chloro-7′-hydroxy-11′,12′-dimethyl-7′-(4-(4-morpholinyl)-1-butyn-1-yl)-3,4-dihydro-2H,15′H-spiro[naphthalene-1,22′-[20]oxa[13]thia[1,14]diazatetracyclo [14.7.2.0~3,6~.0~19,24~]pentacosa[16,18,24]trien]-15′-one 13′,13′-dioxide], for which the IC50 is 833 nM in test [1] (setting [3]) and 0.165 nM in test [2] (setting [4]).

Take `C[C@@H]1[C@@H](C)C/C=C/[C@@](O)(C#CCCN(C)C)[C@@H]2CC[C@H]2CN2C[C@@]3(CCCc4cc(Cl)ccc43)COc3ccc(cc32)C(=O)NS1(=O)=O` [Example 100308, (1S,3′R,6′R,7′S,8′E,11′S,12′R)-6-chloro-7′-(4-(dimethylamino)-1-butyn-1-yl)-7′-hydroxy-11′,12′-dimethyl-3,4-dihydro-2H,15′H-spiro[naphthalene-1,22′-[20]oxa[13]thia[1,14]diazatetracyclo [14.7.2.0~3,6~.0~19,24~]pentacosa[8,16,18,24]tetraen]-15′-one 13′,13′-dioxide]: the IC50 in test [1] (setting [3]) came out at 1170 nM; in test [2] (setting [4]), 0.033 nM.

Turning to `CO[C@@]1(CN2CCOC3(COC3)C2)/C=C/C[C@H](C)[C@@H](C)S(=O)(=O)NC(=O)c2ccc3c(c2)N(C[C@@H]2CC[C@H]21)C[C@@]1(CCCc2cc(Cl)ccc21)CO3` [Example 198, (1S,3′R,6′R,7′S,8′E,11′S,12′R)-6-chloro-7′-(2,5-dioxa-8-azaspiro[3.5]non-8-ylmethyl)-7′-methoxy-11′,12′-dimethyl-3,4-dihydro-2H,15′H-spiro[naphthalene-1,22′-[20]oxa[13]thia[1,14]diazatetracyclo [14.7.2.0~3,6~.0~19,24~]pentacosa[8,16,18,24]tetraen]-15′-one 13′,13′-dioxide], the IC50 in test [1] (setting [6]) worked out at 1310 nM; in test [2] (setting [7]), 0.181 nM.

Take `C[C@@H]1[C@@H](C)C/C=C/[C@@](O)(Cc2ccccn2)[C@@H]2CC[C@H]2CN2C[C@@]3(CCCc4cc(Cl)ccc43)COc3ccc(cc32)C(=O)NS1(=O)=O` [Example 100242, (1S,3′R,6′R,7′S,8′E,11′S,12′R)-6-chloro-7′-hydroxy-11′,12′-dimethyl-7′-(2-pyridinylmethyl)-3,4-dihydro-2H,15′H-spiro[naphthalene-1,22′-[20]oxa[13]thia[1,14]diazatetracyclo [14.7.2.0~3,6~.0~19,24~]pentacosa[8,16,18,24]tetraen]-15′-one 13′,13′-dioxide]: the IC50 in test [1] (setting [3]) turned out to be 1450 nM; in test [2] (setting [4]), 2.15 nM.

The record behind these values is US10821115B2, “Compounds that inhibit Mcl-1 protein” (priority 2017, dated 2020).
